From PMC9537510, “Reduction of stress responses in honey bees by synthetic ligands targeting an allatostatin receptor” (Scientific Reports, 2022)
Each block holds one molecule with its values, some of them ahead of it.

Legend:
Type in all cases: cell-based
[1] = molecular target: T1, allatostatin A receptor (ASTA-R) (Apis mellifera, UniProt A0A7M7ILT1); assay: competition binding with fluorescence-labeled ASTA on ASTA-R-transfected HEK cells
T1 construct: gene LOC413582; receptor expressed in transfected HEK293T cells (NCBI: XP_006560262.1 used for the model)
T1 sequence (A0A7M7ILT1 1-361): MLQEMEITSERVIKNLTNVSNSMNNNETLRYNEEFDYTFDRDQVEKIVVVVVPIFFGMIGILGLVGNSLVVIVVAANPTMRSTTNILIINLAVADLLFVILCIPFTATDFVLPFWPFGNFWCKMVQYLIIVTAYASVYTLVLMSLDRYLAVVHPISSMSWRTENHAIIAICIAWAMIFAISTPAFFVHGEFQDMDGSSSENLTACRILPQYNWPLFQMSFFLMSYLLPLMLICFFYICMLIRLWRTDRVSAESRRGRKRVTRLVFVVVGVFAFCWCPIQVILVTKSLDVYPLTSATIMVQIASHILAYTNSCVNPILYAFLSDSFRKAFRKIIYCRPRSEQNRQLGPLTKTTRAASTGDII

[2] = molecular target: T1, allatostatin A receptor (ASTA-R); assay: competition binding with fluorescence-labeled ASTA on ASTA-R-transfected HEK cells; also cAMP antagonism
[3] = molecular target: T1, allatostatin A receptor (ASTA-R); assay: reversal of ASTA inhibition of forskolin-induced cAMP in ASTA-R-expressing cells; also weak competition binding (IC50 > […])

IC50 [1]: > 10 µM
Compound: O=C(CSCCCc1ccccc1)Nc1cc(C(F)(F)F)ccc1-n1cncn1 [B3, N-(2-(1H-1,2,4-triazol-1-yl)-5-(trifluoromethyl)phenyl)-2-((3-phenylpropyl)thio)acetamide]

IC50 [2]: > 10 µM
Compound: Cc1ccc(-n2cncn2)c(NC(=O)CSCCc2ccccc2)c1 [B5, N-(5-methyl-2-(1H-1,2,4-triazol-1-yl)phenyl)-2-(phenethylthio)acetamide]

Compound: Cc1ccc(-n2cncn2)c(NC(=O)CSCCCc2ccccc2)c1 [B6, N-(5-methyl-2-(1H-1,2,4-triazol-1-yl)phenyl)-2-(phenypropylthio)acetamide]
reversal of ASTA inhibition of forskolin-induced cAMP in ASTA-R-expressing cells [3]: both B5 and B6 act as ASTA antagonists by interacting with ASTA-R
